Assay [1] deals with T1, 5'-nucleotidase (Homo sapiens, UniProt P21589). The assay is described as follows: Inhibition of human soluble CD73 assessed as inhibition constant.
In assay [2] the target is T1, 5'-nucleotidase. Put plainly: Inhibition of 5'-Nucleotidase activity in human tonsils assessed as reduction in CD73 catalytic activity in tonsils incubated for 45 mins in presence of Pb(NO3)2 by […] based assay. The assay is classed as tissue-based. As to conditions: Tonsil, dose 50-250 nM.
The target of assay [3] is T1, 5'-nucleotidase. The assay is described as follows: Inhibition of 5'-Nucleotidase activity in human HN-SCC cells assessed as reduction in tumor CD73 catalytic activity incubated for 45 mins in presence of Pb(NO3)2 by […] based assay. The assay is classed as cell-based. The settings on record: dose 50-250 nM.
Assay [4] concerns the target T1, 5'-nucleotidase. The assay is described as follows: Inhibition of human soluble CD73 at 0.03 to 50000 nM relative to control. The settings on record: dose 0.03-50000 nM.

Calls of active or inactive are those of the source. The rule behind the calls is not given here.

T1 sequence (P21589 whole entry): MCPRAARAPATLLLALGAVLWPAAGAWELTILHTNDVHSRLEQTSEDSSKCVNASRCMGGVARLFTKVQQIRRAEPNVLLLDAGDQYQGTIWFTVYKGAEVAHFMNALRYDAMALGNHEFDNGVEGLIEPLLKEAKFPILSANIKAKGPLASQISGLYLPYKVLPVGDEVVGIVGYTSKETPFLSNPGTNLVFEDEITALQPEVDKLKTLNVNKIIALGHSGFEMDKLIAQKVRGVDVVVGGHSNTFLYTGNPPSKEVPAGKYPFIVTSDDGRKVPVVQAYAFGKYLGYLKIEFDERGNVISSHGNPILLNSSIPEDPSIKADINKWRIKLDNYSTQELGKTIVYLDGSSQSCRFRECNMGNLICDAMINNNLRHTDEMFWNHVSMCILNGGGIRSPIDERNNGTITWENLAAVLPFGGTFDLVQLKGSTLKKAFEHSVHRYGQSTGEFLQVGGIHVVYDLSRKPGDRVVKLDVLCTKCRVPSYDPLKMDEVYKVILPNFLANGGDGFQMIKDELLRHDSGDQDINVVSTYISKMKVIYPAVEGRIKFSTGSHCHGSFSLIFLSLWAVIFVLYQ

By Ki is commonly meant a measure of affinity in units of concentration, obtained from inhibition or displacement. Take `Cn1c(=O)n([C@H]2[C@H](O)[C@H](O)[C@]3(COP(=O)(O)CP(=O)(O)O)C[C@H]23)cc/c1=N/OCc1ccc(Cl)cc1`: the Ki at 5'-nucleotidase [1] amounted to 59.2 nM.
Take `Cn1c(=O)n([C@@H]2O[C@H](COP(=O)(O)CP(=O)(O)O)[C@@H](O)[C@H]2O)cc/c1=N/OCc1ccc(C(F)(F)F)cc1`: the Ki at 5'-nucleotidase [1] is 1.08 nM.
The same measure, in the same setting: the same measure for `Cn1c(=O)n([C@@H]2O[C@H](COP(=O)(O)CP(=O)(O)O)[C@@H](O)[C@H]2O)cc/c1=N/C(=O)NCc1ccccc1`: 71.5 nM; for `Cn1c(=O)n([C@@H]2O[C@H](COP(=O)(O)CP(=O)(O)O)[C@@H](O)[C@H]2O)cc/c1=N/OCc1cccc(C(F)(F)F)c1`: 1.27 nM; for `Cc1ccc(CO/N=c2/ccn([C@@H]3O[C@H](COP(=O)(O)CP(=O)(O)O)[C@@H](O)[C@H]3O)c(=O)n2C)cc1`: 0.894 nM.
As for `Cn1c(=O)n([C@@H]2O[C@H](COP(=O)(O)CP(=O)(O)O)[C@@H](O)[C@H]2O)cc/c1=N/OCc1ccc(C(=O)O)cc1`, at 5'-nucleotidase [1], the Ki was 14.1 nM.
The same measure, in the same setting: for `Cn1c(=O)n([C@@H]2O[C@H](COP(=O)(O)CP(=O)(O)O)[C@@H](O)[C@H]2O)cc/c1=N/OCc1ccc(C(=O)NCCN)cc1` the value was 0.626 nM.
On the same count and under the same terms, for `Cn1c(=O)n([C@@H]2O[C@H](COP(=O)(O)CP(=O)(O)O)[C@@H](O)[C@H]2O)cc/c1=N/OCc1ccc(F)cc1` the value was 1.14 nM; for `Cn1c(=O)n([C@@H]2O[C@H](COP(=O)(O)CP(=O)(O)O)[C@@H](O)[C@H]2O)cc/c1=N/OCc1ccc(Br)cc1`, 0.441 nM.
As usually defined, the inhibition is how much of the control response was suppressed. Regarding `Cn1c(=O)n([C@@H]2O[C@H](COP(=O)(O)CP(=O)(O)O)[C@@H](O)[C@H]2O)cc/c1=N/OCc1ccc(I)cc1`, the inhibition result at 5'-nucleotidase [2] and on 5'-nucleotidase [3] was “Dose-Dependent Effect” throughout. Also, the Ki on 5'-nucleotidase [1] is 0.436 nM.
Consider `Nc1ncnc2c1ncn2[C@@H]1O[C@H](COP(=O)(O)CP(=O)(O)O)[C@@H](O)[C@H]1O`, for which the inhibition result on 5'-nucleotidase [2] and on 5'-nucleotidase [3] was “inactive” in each case.
`O=c1ccn([C@H]2[C@H](O)[C@H](O)[C@]3(COP(=O)(O)CP(=O)(O)O)C[C@H]23)c(=O)[nH]1` came in with an inhibition at 5'-nucleotidase [4] of 28%. At 5'-nucleotidase [1], the Ki was above 50000 nM.
On to `Cn1c(=O)n([C@@H]2O[C@H](COP(=O)(O)CP(=O)(O)O)[C@@H](O)[C@H]2O)cc/c1=N/OCc1cccc(Cl)c1`, for which the Ki on 5'-nucleotidase [1] stood at 1.58 nM.
Same read-out and setting: for `Cn1c(=O)n([C@@H]2O[C@H](COP(=O)(O)CP(=O)(O)O)[C@@H](O)[C@H]2O)cc/c1=N/OCc1ccc(C(=O)NCCC(=O)O)cc1` the value was 2.61 nM.
As for `Cn1c(=O)n([C@@H]2O[C@H](COP(=O)(O)CP(=O)(O)O)[C@@H](O)[C@H]2O)cc/c1=N/OCc1ccc(S(F)(F)(F)(F)F)cc1`, the inhibition entry on 5'-nucleotidase [2] and at 5'-nucleotidase [3] was “Dose-Dependent Effect” in each case. The Ki at 5'-nucleotidase [1] was 0.511 nM.
On to `Cn1c(=O)n([C@@H]2O[C@H](COP(=O)(O)CP(=O)(O)O)[C@@H](O)[C@H]2O)cc/c1=N/OCc1ccc(C(=O)NCCCCN)cc1`, for which the Ki on 5'-nucleotidase [1] turned out to be 1.78 nM.
On the same count and under the same terms, for `CCOC(=O)CCNC(=O)c1ccc(CO/N=c2/ccn([C@@H]3O[C@H](COP(=O)(O)CP(=O)(O)O)[C@@H](O)[C@H]3O)c(=O)n2C)cc1` the value was 2.51 nM; for `Cn1c(=O)n([C@@H]2O[C@H](COP(=O)(O)CP(=O)(O)O)[C@@H](O)[C@H]2O)cc/c1=N/OCc1ccc(C(N)=O)cc1`, 1.76 nM; for `Cn1c(=O)n([C@@H]2O[C@H](COP(=O)(O)CP(=O)(O)O)[C@@H](O)[C@H]2O)cc/c1=N/OCc1ccccc1Cl`, 1.63 nM.
Same read-out and setting: the same measure for `O=c1[nH]c(=O)n([C@@H]2O[C@H](COP(=O)(O)CP(=O)(O)O)[C@@H](O)[C@H]2O)cc1F`: 2540 nM; for `CCc1ccc(CO/N=c2/ccn([C@@H]3O[C@H](COP(=O)(O)CP(=O)(O)O)[C@@H](O)[C@H]3O)c(=O)n2C)cc1`: 3.5 nM; for `COC(=O)c1ccc(CO/N=c2/ccn([C@@H]3O[C@H](COP(=O)(O)CP(=O)(O)O)[C@@H](O)[C@H]3O)c(=O)n2C)cc1`: 0.848 nM.

The values are drawn from ChEMBL document CHEMBL5038658, “Structure-Activity Relationship of 3-Methylcytidine-5'-α,β-methylenediphosphates as CD73 Inhibitors” (J Med Chem, 2022).
